Source: US12077503B2, “Substituted cyclic amides and their use as herbicides” (FMC CORPORATION, priority 2015, dated 2024)

Assays:
Format in all cases: in vivo
Kochia (Kochia scoparia) [1] = experiment: Test A preemergence; settings: Bassia scoparia, pre-emergence, 240 h, 0 to 100 scale where 0 is no effect and 100 is complete control, read-out: Kochia plant response rating
In short: (§1)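 Visual injury scores from 0, no effect, to 100, complete control, were assigned versus untreated controls roughly 10 d after treatment in the greenhouse. Test chemicals, formulated with surfactant in a non-phytotoxic solvent, were applied to planted seeds as a preemergence soil spray or postemergence to one- to two-leaf plants 2 to 10 cm tall, in loam–sand soil.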

[2] = tested on: barnyardgrass (Echinochloa crus-galli); experiment: Test A preemergence; settings: Echinochloa crus-galli, pre-emergence, 240 h, 0 to 100 scale where 0 is no effect and 100 is complete control, read-out: Barnyardgrass plant response rating
In short: as §1

[3] = tested on: giant foxtail (Setaria faberii); experiment: Test A preemergence; settings: Setaria faberi, pre-emergence, 240 h, 0 to 100 scale where 0 is no effect and 100 is complete control, read-out: Foxtail, Giant plant response rating
In short: as §1

[4] = tested on: pigweed (Amaranthus retroflexus); experiment: Test A preemergence; settings: Amaranthus retroflexus, pre-emergence, 240 h, 0 to 100 scale where 0 is no effect and 100 is complete control, read-out: Pigweed plant response rating
[5] = tested on: ragweed (common ragweed, Ambrosia elatior); experiment: Test A preemergence; settings: Ambrosia artemisiifolia, pre-emergence, 240 h, 0 to 100 scale where 0 is no effect and 100 is complete control, read-out: Ragweed plant response rating
In short: as §1

[6] = tested on: ryegrass, Italian (Italian ryegrass, Lolium multiflorum); experiment: Test A preemergence; settings: Lolium multiflorum, pre-emergence, 240 h, 0 to 100 scale where 0 is no effect and 100 is complete control, read-out: Ryegrass, Italian plant response rating
In short: as §1

[7] = tested on: Galium (catchweed bedstraw, Galium aparine); experiment: Test A postemergence; settings: Galium, post-emergence, 240 h
In short: as §1

Kochia (Kochia scoparia) [8] = experiment: Test A postemergence; settings: Bassia scoparia, post-emergence, 240 h
In short: as §1

[9] = tested on: barnyardgrass (Echinochloa crus-galli); experiment: Test A postemergence; settings: Echinochloa crus-galli, post-emergence, 240 h
In short: as §1

[10] = tested on: blackgrass (Alopecurus myosuroides); experiment: Test A postemergence; settings: Alopecurus myosuroides, post-emergence, 240 h
In short: as §1

corn (Zea mays) = experiment: Test A postemergence; settings: Zea mays, post-emergence, 240 h
In short: as §1

[11] = tested on: giant foxtail (Setaria faberii); experiment: Test A postemergence; settings: Setaria faberi, post-emergence, 240 h
In short: as §1

[12] = tested on: pigweed (Amaranthus retroflexus); experiment: Test A postemergence; settings: Amaranthus retroflexus, post-emergence, 240 h
In short: as §1

[13] = tested on: ragweed (common ragweed, Ambrosia elatior); experiment: Test A postemergence; settings: Ambrosia artemisiifolia, post-emergence, 240 h
In short: as §1

[14] = tested on: ryegrass, Italian (Italian ryegrass, Lolium multiflorum); experiment: Test A postemergence; settings: Lolium multiflorum, post-emergence, 240 h
In short: as §1

[15] = tested on: wheat (Triticum aestivum); experiment: Test A postemergence; settings: Triticum aestivum, post-emergence, 240 h
In short: as §1

[16] = tested on: barnyardgrass (Echinochloa crus-galli); experiment: Test B flooded paddy test; settings: Echinochloa crus-galli, 250 g ai/ha, Flood; 0 to 100 scale where 0 is no effect and 100 is complete control; read-out: Barnyardgrass plant response rating
In short: (§2)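 Percent control, visually estimated after 13–15 d in the greenhouse on a 0–100 basis, compares treated pots with untreated ones; compound was put into paddy water 3 cm above the soil when plants had two leaves.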

[17] = tested on: ducksalad (Heteranthera limosa); experiment: Test B flooded paddy test; settings: Heteranthera limosa, 250 g ai/ha, Flood; 0 to 100 scale where 0 is no effect and 100 is complete control; read-out: Ducksalad plant response rating
In short: as §2

rice (Oryra sativa) = experiment: Test B flooded paddy test; settings: Oryza sativa, 250 g ai/ha, Flood; 0 to 100 scale where 0 is no effect and 100 is complete control; read-out: Rice plant response rating
In short: as §2

[18] = tested on: sedge, umbrella (small-flower umbrella sedge, Cyperus difformis); experiment: Test B flooded paddy test; settings: Cyperus difformis, 250 g ai/ha, Flood; 0 to 100 scale where 0 is no effect and 100 is complete control; read-out: Sedge, Umbrella plant response rating
In short: as §2

[19] = 125 g ai/ha, preemergence, approx. 10 d

CN1C[C@H](c2ccc(Cl)cc2)[C@@H](C(=O)Nc2ccc(F)c(F)c2F)C1=O [Compound 1144]
30%: pest or weed control at 31 g/ha ([4]; 31 g ai/ha, Preemergence) | pest or weed control at 125 g/ha ([12]; 125 g ai/ha, postemergence, visual injury vs untreated controls after approx. 10 d, 0 = no effect, 100 = complete control, read-out: Pigweed plant response rating (0 to 100 scale)) | pest or weed control at 31 g/ha ([14]; Postemergence, 31 g ai/ha, visual injury after approx. 10 d, 0 to 100 scale, 0 no effect, 100 complete control, read-out: Plant response rating, Ryegrass, Italian) | plant injury at 31 g/ha ([15]; Postemergence, 31 g ai/ha, visual injury after approx. 10 d, 0 to 100 scale, 0 no effect, 100 complete control, read-out: Plant response rating, Wheat)
80%: pest or weed control at 125 g/ha [4, 19] | pest or weed control at 31 g/ha ([11]; Postemergence, 31 g ai/ha, visual injury after approx. 10 d, 0 to 100 scale, 0 no effect, 100 complete control, read-out: Plant response rating, Foxtail, Giant)
100%: pest or weed control at 250 g/ha [17]
90%: pest or weed control at 31 g/ha ([2]; 31 g ai/ha, Preemergence) | pest or weed control at 125 g/ha [2, 19] | pest or weed control at 31 g/ha ([3]; 31 g ai/ha, Preemergence) | pest or weed control at 125 g/ha [3, 19] | pest or weed control at 125 g/ha ([9]; 125 g ai/ha, postemergence, visual injury on 0 to 100 scale (0 no effect, 100 complete control), approx. 10 d, read-out: Barnyardgrass plant response rating) | pest or weed control at 31 g/ha ([9]; Postemergence, 31 g ai/ha, visual injury after approx. 10 d, 0 to 100 scale, 0 no effect, 100 complete control, read-out: Plant response rating, Barnyardgrass) | pest or weed control at 125 g/ha ([11]; 125 g ai/ha, postemergence, visual injury on 0 to 100 scale (0 no effect, 100 complete control), approx. 10 d, read-out: Foxtail, Giant plant response rating)
50%: pest or weed control at 31 g/ha (Kochia (Kochia scoparia) [1]; 31 g ai/ha, Preemergence) | pest or weed control at 31 g/ha ([6]; 31 g ai/ha, Preemergence) | pest or weed control at 125 g/ha [6, 19] | pest or weed control at 31 g/ha (Kochia (Kochia scoparia) [8]; Postemergence, 31 g ai/ha, visual injury after approx. 10 d, 0 to 100 scale, 0 no effect, 100 complete control, read-out: Plant response rating, Kochia) | plant injury at 125 g/ha (corn (Zea mays); 125 g ai/ha, postemergence, visual injury on 0 to 100 scale (0 no effect, 100 complete control), approx. 10 d, read-out: Corn plant response rating) | plant injury at 125 g/ha ([15]; 125 g ai/ha, postemergence, visual injury vs untreated controls after approx. 10 d, 0 = no effect, 100 = complete control, read-out: Wheat plant response rating (0 to 100 scale))
40%: pest or weed control at 125 g/ha ([7]; 125 g ai/ha, postemergence, visual injury on 0 to 100 scale (0 no effect, 100 complete control), approx. 10 d, read-out: Galium plant response rating) | pest or weed control at 125 g/ha ([10]; 125 g ai/ha, postemergence, visual injury on 0 to 100 scale (0 no effect, 100 complete control), approx. 10 d, read-out: Blackgrass plant response rating)
85%: pest or weed control at 250 g/ha [16]
20%: pest or weed control at 125 g/ha [5, 19] | Corn plant response rating (crop injury, 0 = no effect, 100 = complete kill) at 31 g/ha (corn (Zea mays); Postemergence, 31 g ai/ha, visual injury after approx. 10 d, 0 to 100 scale, 0 no effect, 100 complete control) | pest or weed control at 31 g/ha ([13]; Postemergence, 31 g ai/ha, visual injury after approx. 10 d, 0 to 100 scale, 0 no effect, 100 complete control, read-out: Plant response rating, Ragweed) | pest or weed control at 250 g/ha (rice (Oryra sativa))
0%: pest or weed control at 31 g/ha ([5]; 31 g ai/ha, Preemergence) | pest or weed control at 31 g/ha ([7]; Postemergence, 31 g ai/ha, visual injury after approx. 10 d, 0 to 100 scale, 0 no effect, 100 complete control, read-out: Plant response rating, Galium) | pest or weed control at 31 g/ha ([10]; Postemergence, 31 g ai/ha, visual injury after approx. 10 d, 0 to 100 scale, 0 no effect, 100 complete control, read-out: Plant response rating, Blackgrass) | pest or weed control at 31 g/ha ([12]; Postemergence, 31 g ai/ha, visual injury after approx. 10 d, 0 to 100 scale, 0 no effect, 100 complete control, read-out: Plant response rating, Pigweed) | pest or weed control at 250 g/ha [18]
70%: pest or weed control at 125 g/ha (Kochia (Kochia scoparia) [8]; 125 g ai/ha, postemergence, visual injury on 0 to 100 scale (0 no effect, 100 complete control), approx. 10 d, read-out: Kochia plant response rating) | pest or weed control at 125 g/ha ([13]; 125 g ai/ha, postemergence, visual injury vs untreated controls after approx. 10 d, 0 = no effect, 100 = complete control, read-out: Ragweed plant response rating (0 to 100 scale))
60%: pest or weed control at 125 g/ha (Kochia (Kochia scoparia) [1]; [19]) | pest or weed control at 125 g/ha ([14]; 125 g ai/ha, postemergence, visual injury vs untreated controls after approx. 10 d, 0 = no effect, 100 = complete control, read-out: Ryegrass, Italian plant response rating (0 to 100 scale))
